In this data set the test system is CCRIS mutagenicity, Ames/micronucleus/aberration tests. Nature of the data set: CCRIS mutagenicity studies.
The mark [1] stands for this setting: Test System: AMES SALMONELLA TYPHIMURIUM, Strain/Indicator: TA98, Metabolic Activation: NONE, Method: STANDARD PLATE.
Setting [2] is: Test System: AMES SALMONELLA TYPHIMURIUM, Strain/Indicator: TA100, Metabolic Activation: NONE, Method: STANDARD PLATE.
The mark [3] stands for this setting: Test System: AMES SALMONELLA TYPHIMURIUM, Strain/Indicator: TA98, Metabolic Activation: NONE, Method: PREINCUBATION
The mark [4] stands for this setting: Test System: AMES SALMONELLA TYPHIMURIUM, Strain/Indicator: TA100, Metabolic Activation: NONE, Method: PREINCUBATION
[5] abbreviates: Test System: AMES SALMONELLA TYPHIMURIUM, Strain/Indicator: TA97, Metabolic Activation: NONE, Method: PREINCUBATION
The mark [6] stands for this setting: Test System: AMES SALMONELLA TYPHIMURIUM, Strain/Indicator: TA104, Metabolic Activation: NONE, Method: PREINCUBATION

Molecules are shown by their SMILES. Calls of active or inactive are those of the source. No rule for the calls is given here.

Consider `CCOCCl`, for which the mutagenic call reads like this: (Test System: E. COLI, Strain/Indicator: H/R30R, Metabolic Activation: NONE, Method: PREINCUBATION) “active; positive”; (Test System: E. COLI, Strain/Indicator: HS30R UVRA, Metabolic Activation: NONE, Method: PREINCUBATION) “active; positive”.
As for `O[C@@H]1[C@H]2O[C@H]2c2c(ccc3nc4ccc5ccccc5c4cc23)[C@H]1O`, the mutagenic call is “active; positive” under setting [1]; “active; positive” (Test System: AMES SALMONELLA TYPHIMURIUM, Strain/Indicator: TA100, Metabolic Activation: GUINEA PIG, LIVER, S-9, 3-METHYLCHOLANTHRENE, Method: STANDARD PLATE); “active; positive” under setting [2]; “active; positive” (Test System: CHINESE HAMSTER V-79, Strain/Indicator: V-79/6-THIOGUANINE, Metabolic Activation: NONE).
`NNc1nncc2ccncc12`: the mutagenic call is “active; positive” under setting [3]; “active; positive” (Test System: AMES SALMONELLA TYPHIMURIUM, Strain/Indicator: TA98, Metabolic Activation: RAT, LIVER, S-9, PCB, Method: PREINCUBATION); “active; positive” under setting [4]; “active; positive” (Test System: AMES SALMONELLA TYPHIMURIUM, Strain/Indicator: TA100, Metabolic Activation: RAT, LIVER, S-9, PCB, Method: PREINCUBATION).
Consider `CCO`, for which the mutagenic call was “inactive; negative” (Test System: AMES SALMONELLA TYPHIMURIUM, Strain/Indicator: TA97, Metabolic Activation: HAMSTER, LIVER, S-9, AROCLOR 1254 (10%), Method: PREINCUBATION); “inactive; negative” (Test System: AMES SALMONELLA TYPHIMURIUM, Strain/Indicator: TA97, Metabolic Activation: HAMSTER, LIVER, S-9, AROCLOR 1254 (30%), Method: PREINCUBATION); “inactive; negative” under setting [5]; “inactive; negative” (Test System: AMES SALMONELLA TYPHIMURIUM, Strain/Indicator: TA97, Metabolic Activation: RAT, LIVER, S-9, AROCLOR 1254 (10%), Method: PREINCUBATION); “inactive; negative” (Test System: AMES SALMONELLA TYPHIMURIUM, Strain/Indicator: TA97, Metabolic Activation: RAT, LIVER, S-9, AROCLOR 1254 (30%), Method: PREINCUBATION); “inactive; negative” (Test System: AMES SALMONELLA TYPHIMURIUM, Strain/Indicator: TA98, Metabolic Activation: HAMSTER, LIVER, S-9, AROCLOR 1254 (10 OR 30%), Method: PREINCUBATION). Further, the mutagenic call is “inactive; negative” under setting [3]; “inactive; negative” (Test System: AMES SALMONELLA TYPHIMURIUM, Strain/Indicator: TA98, Metabolic Activation: RAT, LIVER, S-9, AROCLOR 1254 (10 OR 30%), Method: PREINCUBATION); “inactive; negative” (Test System: AMES SALMONELLA TYPHIMURIUM, Strain/Indicator: TA100, Metabolic Activation: HAMSTER, LIVER, S-9, AROCLOR 1254 (10 OR 30%), Method: PREINCUBATION); “inactive; negative” under setting [4]; “inactive; negative” (Test System: AMES SALMONELLA TYPHIMURIUM, Strain/Indicator: TA100, Metabolic Activation: RAT, LIVER, S-9, AROCLOR 1254 (10 OR 30%), Method: PREINCUBATION); “inactive; negative” (Test System: AMES SALMONELLA TYPHIMURIUM, Strain/Indicator: TA104, Metabolic Activation: HAMSTER, LIVER, S-9, AROCLOR 1254 (10 OR 30%), Method: PREINCUBATION). For the same molecule, the mutagenic call under setting [6] was “inactive; negative”; the mutagenic call (Test System: AMES SALMONELLA TYPHIMURIUM, Strain/Indicator: TA104, Metabolic Activation: RAT, LIVER, S-9, AROCLOR 1254 (10 OR 30%), Method: PREINCUBATION) is “inactive; negative”; the mutagenic call (Test System: AMES SALMONELLA TYPHIMURIUM, Strain/Indicator: TA1535, Metabolic Activation: HAMSTER, LIVER, S-9, AROCLOR 1254 (10 OR 30%), Method: PREINCUBATION) is “inactive; negative”; the mutagenic call (Test System: AMES SALMONELLA TYPHIMURIUM, Strain/Indicator: TA1535, Metabolic Activation: NONE, Method: PREINCUBATION) was “inactive; negative”; the mutagenic call (Test System: AMES SALMONELLA TYPHIMURIUM, Strain/Indicator: TA1535, Metabolic Activation: RAT, LIVER, S-9, AROCLOR 1254 (10 OR 30%), Method: PREINCUBATION) is “inactive; negative”; the mutagenic call (Test System: MOUSE LYMPHOMA, Strain/Indicator: L5178Y (TK+/TK-), Metabolic Activation: NONE, Method: SUSPENSION/PLATE) is “inactive; negative”. Besides, where the note is “Test System: MOUSE LYMPHOMA, Strain/Indicator: L5178Y (TK+/TK-), Metabolic Activation: RAT, LIVER, S-9, AROCLOR 1254, Method: SUSPENSION/PLATE”, the mutagenic call is “inactive; negative”.
Regarding `O[C@@H]1[C@H]2O[C@H]2c2c(ccc3c2ccc2ccccc23)[C@H]1O`, the mutagenic call is, setting by setting: under setting [5], “active; positive”; under setting [3], “active; positive”; under setting [4], “active; positive”; under setting [6], “active; positive”; (Test System: CHINESE HAMSTER V-79, Strain/Indicator: V-79/6-THIOGUANINE, Metabolic Activation: NONE, Method: STANDARD PLATE) “active; positive”.
With `O=C(/C=C/c1ccccc1)c1ccc([N+](=O)[O-])cc1`, the mutagenic call is, setting by setting: under setting [2], “inactive; negative”; (Test System: AMES SALMONELLA TYPHIMURIUM, Strain/Indicator: TA100, Metabolic Activation: RAT, LIVER, S-9, AROCLOR 1254, Method: STANDARD PLATE) “inactive; negative”.
Turning to `Nc1ccc2c(c1)C(=O)/C(=N/Nc1ccc(-c3ccc(N/N=C4\C=CC(=O)C(C(=O)O)=C4)cc3)cc1)C(S(=O)(=O)O)=C2`, the mutagenic call (Test System: AMES SALMONELLA TYPHIMURIUM, Strain/Indicator: TA98, Metabolic Activation: HAMSTER, LIVER, S-9, Method: PREINCUBATION (PRIVAL METHOD)) is “active; positive”.
As for `Cc1c(N)nc(C(CC(N)=O)NCC(N)C(N)=O)nc1C(=O)NC(C(=O)NC(C)C(O)C(C)C(=O)NC(C(=O)NCCc1nc(-c2nc(C(=O)NCCCCN(CCCCN=C(N)N)C(=N)N)cs2)cs1)C(C)O)C(OC1OC(CO)C(O)C(O)C1OC1OC(CO)C(O)C(OC(N)=O)C1O)c1cnc[nH]1` (stereo not drawn), for the setting “Test System: AMES SALMONELLA TYPHIMURIUM, Strain/Indicator: TA102, Metabolic Activation: NONE, Method: PREINCUBATION”, the mutagenic call was “active; positive”.
As for `O=C1c2c(ccc3ccccc23)-c2ccc3ccccc3c21`, the mutagenic call runs as follows: under setting [1], “inactive; negative”; under setting [2], “inactive; negative”.
Turning to `CCCCOc1c(C(=O)NOC(C)=O)ccc2ccccc12`, the mutagenic call reads like this: under setting [2], “active; positive”; (Test System: AMES SALMONELLA TYPHIMURIUM, Strain/Indicator: TA100, Metabolic Activation: RAT, S-9, AROCLOR, Method: STANDARD PLATE) “active; positive”.
Regarding `CC(=O)c1cccc2c1OC1(C)OOC21C` (stereo not drawn), the mutagenic call under setting [4] is “active; positive”.

For the origin of these results see PubChem BioAssay AID1259407 (Chemical Carcinogenesis Research Information System (CCRIS), 2018).
